# Columns and labels:
# [1] = tested on: P. falciparum, strain NF54, erythrocytic stages; experiment: In vitro growth inhibition assay of Plasmodium falciparum NF54 ([3H]-hypoxanthine incorporation); assay type: cell-based; conditions: for IC50: Plasmodium falciparum, strain NF54, erythrocytic stages, read-out: P. falc. IC50; for SI (IC50 in L6 cells/IC50 P. falciparum): ratio IC50 L6 / IC50 P. falciparum NF54
# Experimental: In vitro activity against erythrocytic stages of P. falciparum was determined by a modified [^3H]-hypoxanthine incorporation assay using the drug-sensitive NF54 strain and the standard drug, chloroquine (Sigma C6628). Briefly, parasite cultures incubated in RPMI 1640 medium with 5% AlbuMAX^TM (without hypoxanthine) were exposed to serial drug dilutions in microtiter plates. After 48 h of incubation at 37 °C in a reduced oxygen atmosphere, 0.5 μCi [^3H]-hypoxanthine was added to each well of the plate. Cultures were incubated for a further 24 h before they were harvested onto glass-fiber filters and washed with distilled water. The radioactivity was counted using a Betaplate^TM liquid scintillation counter (Wallac, Zurich). The results were recorded as counts per minute (CPM) per well at each drug concentration and expressed as a percentage of the untreated controls. IC50 values were calculated from the sigmoidal inhibition curves using Microsoft Excel.
# [2] = tested on: L6 cells rat skeletal myoblasts; experiment: Cytotoxicity against L6 cells (Alamar Blue); assay type: cell-based; conditions: L6 rat skeletal myoblasts, 72 h; read-out: Cyt. L6 IC50
# Experimental: Assays were performed in 96-well microtiter plates, each well containing 100 μL of RPMI 1640 medium supplemented with 1% L-glutamine (200 mM) and 10% foetal bovine serum, and 4000 L6 cells (a […] cell line derived from rat skeletal myoblasts). Serial drug dilutions of 11 threefold dilution steps covering a range from 100 to 0.002 μg/mL were prepared. After 72 h of incubation, the plates were inspected under an inverted microscope to assure growth of the controls and sterile conditions. 10 μL of Alamar Blue solution was then added to each well and the plates incubated for another 2 h. Then, the plates were read with a Spectramax Gemini XS microplate fluorometer (Molecular Devices Cooperation, Sunnyvale, CA, USA) using an excitation wavelength of 536 nm and an emission wavelength of 588 nm. The IC50 values were calculated by linear regression from the sigmoidal dose inhibition curves using the microplate reader software, Softmax Pro (Molecular Devices Cooperation, Sunnyvale, CA, USA). Podophyllotoxin (Sigma P4405) was used as the control.
SMILES,IC50 [1],SI (IC50 in L6 cells/IC50 P. falciparum) [1],IC50 [2]
"O=C1C=CC(O)(CCN2C(=O)C=CC2=O)C=C1 [Compound 13b, N-[2-(1-Hydroxy-4-oxocyclohexa-2,5-dien-1-yl)ethyl]maleimide]",4.42 µM,6.1,26.8 µM
"O=C1C=CC(O)(CCN2C(=O)c3cccnc3C2=O)C=C1 [Compound 13f, N-[2-(1-Hydroxy-4-oxocyclohexa-2,5-dien-1-yl)ethyl]pyridine-2,3-dicarboximide]",28 µM,5.5,153 µM
"O=C1C=CC(O)(CCN2C(=O)COCC2=O)C=C1 [Compound 13g, N-[2-(1-Hydroxy-4-oxocyclohexa-2,5-dien-1-yl)ethyl]morpholine-3,5-dione]",11.8 µM,6.6,77.5 µM
"O=C1C=CC(O)(CCN2C(=O)C3=C(CCCC3)C2=O)C=C1 [Compound 13i, N-[2-(1-Hydroxy-4-oxocyclohexa-2,5-dien-1-yl)ethyl]-3,4,5,6-tetrahydrophthalimide]",1.28 µM,–,3.52 µM
"O=C1C=CC(O)(CCN2C(=O)C3CC=CCC3C2=O)C=C1 (centres unmarked) [Compound 13j, N-[2-(1-Hydroxy-4-oxocyclohexa-2,5-dien-1-yl)ethyl]-1,2,3,6-tetrahydrophthalimide]",3.93 µM,2.0,8.04 µM
"O=C1C=CC(O)(CCN2Cc3ccccc3C2)C=C1 [Compound 14a, N-[2-(1-Hydroxy-4-oxocyclohexa-2,5-dien-1-yl)ethyl]isoindoline]",2.91 µM,1.0,2.81 µM
"O=C1C=CC(O)(CCN2CCOCC2)C=C1 [Compound 14c, N-[2-(1-Hydroxy-4-oxocyclohexa-2,5-dien-1-yl)ethyl]morpholine]",10.9 µM,0.3,3.46 µM

# From PMC6278284, “Synthesis of Jacaranone-Derived Nitrogenous Cyclohexadienones and Their Antiproliferative and Antiprotozoal Activities” (Molecules, 2018)
